Assay results: patent US7842808B2, “Anti-migraine spirocycles” (Bristol-Myers Squibb Company, priority 2002, dated 2010)

Key:
[1] = tested on: human cerebral vessels (CGRP-induced dilation); assay: Ex Vivo Human Cerebral Artery Assay, reversal of CGRP-induced relaxation; conditions: reversal of 1 nM hCGRP-induced relaxation, vessels pre-contracted with 10 mM KCl
How it was run: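 Autopsy human cerebral artery rings (4-5 mm) in Krebs buffer, 37 °C, pH 7.4, carbogen; primed with 100 mM KCl, pre-contracted with 10 mM KCl and fully dilated with 1 nM hCGRP. Antagonists added cumulatively in half-log steps; tension recorded as % reversal of CGRP relaxation, EC50 by four-parameter logistic fit per vessel.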

[2] = target: T1, CGRP receptor (SK-N-MC cell membranes) (Homo sapiens, UniProt O60894+Q16602); assay: CGRP Binding Assay ([125I]-CGRP radioligand binding, SK-N-MC homogenate); conditions: displacement of [125I]-CGRP, SK-N-MC homogenate; read-out: CGRP binding IC50
T1 construct: endogenous in cells; host or cells: SK-N-MC cells (membrane homogenate)
T1 sequence (Q16602 23-461): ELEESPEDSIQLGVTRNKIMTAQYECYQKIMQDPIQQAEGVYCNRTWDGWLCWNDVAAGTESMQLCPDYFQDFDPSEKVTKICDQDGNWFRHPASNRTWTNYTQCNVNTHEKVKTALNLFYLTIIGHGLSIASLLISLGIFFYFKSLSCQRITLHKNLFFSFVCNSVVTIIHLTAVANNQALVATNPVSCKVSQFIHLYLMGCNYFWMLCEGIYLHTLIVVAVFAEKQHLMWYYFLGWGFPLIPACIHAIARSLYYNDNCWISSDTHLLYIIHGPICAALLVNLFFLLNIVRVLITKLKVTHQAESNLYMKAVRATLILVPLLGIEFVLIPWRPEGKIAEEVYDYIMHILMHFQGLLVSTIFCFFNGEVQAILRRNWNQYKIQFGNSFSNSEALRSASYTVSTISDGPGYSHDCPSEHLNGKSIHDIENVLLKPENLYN
T1 sequence (O60894 27-148): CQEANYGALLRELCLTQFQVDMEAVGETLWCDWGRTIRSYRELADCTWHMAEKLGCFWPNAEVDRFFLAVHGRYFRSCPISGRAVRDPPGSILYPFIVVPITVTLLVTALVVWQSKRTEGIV

[3] = tested on: CGRP-induced increase in laser Doppler facial blood flow; assay: Non-terminal laser Doppler facial blood flow model in non-human primate; type: in vivo, common marmoset (Callithrix jacchus); conditions: iv, CGRP 10 μg/kg
Excerpt: Overview. […] Non-human primates (e.g., marmosets) are the only animals known to have human-like CGRP receptor pharmacology conferred by the presence of the specific amino acid residue (Trp74) in their RAMP1 sequence which is responsible for the phenotype of the human receptor (Mallee et al. J Biol Chem 2002 277:14294). […] Peptide and small-molecule CGRP-receptor antagonists were used to validate the non-human primate model.
Animals. Adult male and female common marmosets (Callithrix jacchus) purchased from Harlan and weighing 350-550 g served as subjects. Other mammals endogenously expressing RAMP1 having Trp 74 or transgenic mammals with humanized RAMP1 having Trp 74 can also be employed in A compound described herein.
Anesthesia & Surgical Preparation. Animals are anesthetized by isoflurane inhalation in an induction chamber (4-5% rapid induction, maintained with 1-2.5%; Solomon et al., 1999). Anesthesia is maintained by delivering a constant supply of air:oxygen (50:50) and isoflurane via face mask, or by intubation and ventilation (with blood gas monitoring). Body temperature is maintained at 38±0.5° C. by placement on an automated temperature controlled surface with rectal probe. A small area of fur (approx. 1.5 cm square) is removed from one or both sides of the face by application of a depilatory cream and/or shaving. Surgical areas are clipped and prepared with betadine. An i.v. line is placed in any accessible vein for the administration of test compounds and CGRP-receptor agonist and, if needed, withdrawal of blood samples (max 2.5 ml, 10%) for blood gas monitoring and content analysis. A solution of 5% dextrose is administered i.v. in order to maintain blood sugar levels. Anesthesia depth is monitored by measuring blood pressure and heart rate using a non-invasive arm cuff method and a pulse oximeter, respectively. Guanethidine 5-10 mg/kg i.v., supplemented with 5 mg/kg i.v. as needed, may be given to stabilize the peak flux in facial blood flow seen with repeated stimulation-induced changes in blood flow (Escott et al., 1999; incorporated by reference herein). Microvascular blood flow is monitored by attaching a self adhesive laser Doppler flow probe to the facial skin.
Compound Administration Test compounds may be administered i.v. (0.01-5 ml/kg), i.m. (0.01-0.5 ml/kg), s.c. (0.01-5 ml/kg) or p.o. (0.1-10 ml/kg) (Diehl et al., 2001; incorporated by reference herein). CGRP-receptor agonists may be delivered i.v. (0.01-5 ml/kg), i.d. (10-100 μl/site) or s.c. (10-100 μl/site).

Compound	EC50 [1] [nM]	IC50 [2] [nM]	% Inhibition of CGRP-induced increase in laser Doppler facial blood flow ([3]; 0.03 mg/kg)	% Inhibition of CGRP-induced increase in laser Doppler facial blood flow ([3]; 0.1 mg/kg)
Cc1cc(CC(NC(=O)N2CCC(N3Cc4ccccc4NC3=O)CC2)C(=O)N2CCC(N3CCCCC3)CC2)cc2cn[nH]c12 (racemic) [Example 16, (±)-4-(2-Oxo-1,4-dihydro-2H-quinazolin-3-yl)-piperidine-1-carboxylic acid[2-[1,4′]bipiperidinyl-1′-yl-1-(7-methyl-1H-indazol-5-ylmethyl)-2-oxo-ethyl]-amide]	< 10	< 10	Y (50%<Y≦75%)	–
Cc1cc(CC(CC(=O)N2CCC(N3Cc4ccccc4NC3=O)CC2)C(=O)N2CCC(N3CCCCC3)CC2)cc2cn[nH]c12 (racemic) [Example 69, (±)-1-[1,4′]Bipiperidinyl-1′-yl-2-(7-methyl-1H-indazol-5-ylmethyl)-4-[4-(2-oxo-1,4-dihydro-2H-quinazolin-3-yl)-piperidin-1-yl]-butane-1,4-dione]	< 10	< 10	Y (50%<Y≦75%)	Z (Z>75%)
